# Reference: patent US20030175824A1, “Drug candidate screening systems based on micropatterned hydrogels and microfluidic systems” (priority 2002, published 2003)
# Test system: murine 3T3 fibroblasts
# Settings: 0.05% sodium azide in PBS; cells stained red
# Experimental: Hydrogel microstructures encapsulating murine 3T3 fibroblasts were fabricated using proximity photolithography. A PEG-diacrylate (PEG-DA, MW 575, Sigma-Aldrich or MW 4000, Polysciences) precursor solution containing 0.5% (w/w) DAROCUR 1173 (1-phenyl-2-hydroxy-2-methyl-1-propanone, Ciba Specialty Chemicals) as a photoinitiator was mixed with a cell suspension in cell culture media to produce a cell density about 4 to 5×10^6 cells/mL in the gel precursor solution. Fibroblasts were cultured on tissue culture polystyrene in Dulbecco's modified Eagle media (DMEM with 4.5 g/L glucose and 10% FBS, Sigma-Aldrich) and incubated at 37° C. in 5% CO2 and 95% air until near confluence. Cells were detached from culture flasks by trypsinization with 0.25% trypsin and 0.13% EDTA in phosphate buffered saline. Cells were transferred back to cell culture media and then added to the gel precursor solution. […]
# The viability of individual cells in hydrogel microstructures with diameters of 600 μm and 50 μm was investigated using Live/Dead Viability/Cytotoxicity fluorescence assay (Molecular Probes, Inc.) that stains live cells green and dead cells red. […]
# The viability of cells encapsulated in hydrogel was also measured using an MTT (3(4,5-dimethylthiazol-2-yl)-2,5-diphenyl tetrazolium bromide) assay.
smiles,measurement,value
[N-]=[N+]=[N-] [sodium azide],"effect on encapsulated cells (control, LIVE/DEAD staining)",killed the cells
